Laboratory results taken from the supplement of paper PMC10307832.

What was measured:
Experiment in all cases: relative viability (nuclei count vs DMSO), 5 days (fraction); higher = more cells survive
[1] = compound: COc1cc(N2CCC(N3CCN(C)CC3)CC2)ccc1Nc1ncc(Cl)c(Nc2ccccc2S(=O)(=O)C(C)C)n1 [NVP-TAE684] + CC(=O)c1c(C)c2cnc(Nc3ccc(N4CCNCC4)cn3)nc2n(C2CCCC2)c1=O [Palbociclib] (partner 0.5 µM)
Summary of the method: (§1)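 Each reported value is a median over duplicate plates. It expresses relative viability: treated-well nuclei count divided by vehicle-well nuclei count. Lung cancer cell lines in 1536-well plates were dosed by pin tool a day after seeding, alone with one drug or with a fixed anchor-drug dose plus five library-drug doses (not always all listed) in √10 steps, and nuclei were counted after 5 days.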

[2] = compound: COc1cc(N2CCC(N3CCN(C)CC3)CC2)ccc1Nc1ncc(Cl)c(Nc2ccccc2S(=O)(=O)C(C)C)n1 [NVP-TAE684] + CS(=O)(=O)N1CCN(Cc2cc3nc(-c4cccc5[nH]ncc45)nc(N4CCOCC4)c3s2)CC1 [Pictilisib] (partner 1 µM)
Summary of the method: as §1

[3] = compound: COc1cc2/c(=N/c3ccc(Br)cc3F)nc[nH]c2cc1OCC1CCN(C)CC1 [Vandetanib] + COc1cc2c(Oc3ccc(NC(=O)C4(C(=O)Nc5ccc(F)cc5)CC4)cc3F)ccnc2cc1OCCCN1CCOCC1 [Foretinib] (partner 0.25 µM)
Summary of the method: as §1

[4] = compound: COc1cc2/c(=N/c3ccc(Br)cc3F)nc[nH]c2cc1OCC1CCN(C)CC1 [Vandetanib] + CS(=O)(=O)CCNCc1ccc(-c2ccc3ncnc(Nc4ccc(OCc5cccc(F)c5)c(Cl)c4)c3c2)o1 [Lapatinib] (partner 2 µM)
Summary of the method: as §1

Cell Line	relative viability ([1]; first compound 0.2 µM)	relative viability ([1]; first compound 0.6325 µM)	relative viability ([1]; first compound 2 µM)	relative viability ([2]; first compound 0.2 µM)	relative viability ([2]; first compound 0.6325 µM)	relative viability ([2]; first compound 2 µM)	relative viability ([3]; first compound 0.02 µM)	relative viability ([3]; first compound 0.06325 µM)	relative viability ([3]; first compound 0.2 µM)	relative viability ([3]; first compound 0.6325 µM)	relative viability ([3]; first compound 2 µM)	relative viability ([4]; first compound 0.02 µM)	relative viability ([4]; first compound 0.06325 µM)	relative viability ([4]; first compound 0.2 µM)	relative viability ([4]; first compound 0.6325 µM)	relative viability ([4]; first compound 2 µM)
NCI-H1755	0.441	0.472	0.401	0.5	0.414	0.408	0.9	0.884	0.9	0.956	0.868	1.06	0.978	0.983	1.02	1.01
NCI-H358	0.125	0.121	0.0895	0.305	0.261	0.219	0.657	0.716	0.649	0.646	0.332	0.38	0.397	0.445	0.419	0.434
NCI-H1650	0.297	0.299	0.211	0.564	0.405	0.161	1.28	0.693	0.224	0.753	0.641	0.704	0.734	–	0.988	0.765
NCI-H2228	0.44	0.253	0.279	0.281	0.167	0.223	0.92	0.625	0.167	0.803	0.822	1.32	0.903	–	1.32	1.23
NCI-H2347	0.449	0.453	0.359	0.572	0.482	0.597	1.01	–	0.789	1.02	0.553	0.972	0.701	0.913	0.964	0.89
HCC-15	0.63	0.7	0.587	0.718	0.738	0.737	1.05	0.96	0.577	1.04	0.973	0.824	0.772	0.798	0.878	0.937
NCI-H23	0.439	0.5	0.241	0.518	0.422	0.377	0.917	1	0.304	0.947	0.898	1.07	0.971	0.969	1.28	0.962
LC-2-ad	0.43	0.482	0.32	0.333	0.578	0.344	1	0.854	0.939	0.801	0.656	0.896	0.949	0.506	0.783	0.711
LCLC-97TM1	0.251	0.249	0.0774	0.112	0.145	0.148	1	0.904	0.997	0.942	0.868	0.864	1.05	0.909	0.841	0.8
HOP-62	0.54	0.501	0.491	0.815	0.75	0.754	1.04	1.02	0.562	1.11	1.02	0.81	0.923	1.07	0.932	0.892
NCI-H2085	0.463	0.512	0.478	0.445	0.427	0.415	0.935	0.852	0.351	0.993	0.836	0.749	0.706	0.837	0.868	0.748
NCI-H2087	0.206	0.22	0.248	0.942	0.886	0.858	1.15	0.886	0.181	1.38	1.11	0.894	0.916	0.988	1.06	1.08
NCI-H1395	0.618	0.639	0.54	0.659	0.61	0.589	0.969	1.02	1.02	0.972	0.998	0.963	0.875	1.03	0.936	0.864
COR-L 105	0.4	0.393	0.297	0.307	0.281	0.264	0.91	1.11	0.329	0.533	0.358	0.322	0.307	0.325	0.366	0.356
CAL-12T	0.357	0.344	0.186	0.36	0.245	0.305	1.13	1.05	0.217	1.31	0.552	0.704	0.611	0.701	0.726	0.749
A-427	0.539	0.527	0.431	0.735	–	0.652	1.03	1.05	1.1	0.977	1.05	0.968	1.02	1.14	1.01	0.74
NCI-H1975	0.591	0.589	0.37	0.281	0.231	0.191	0.908	0.901	0.136	0.842	0.912	0.846	0.831	0.862	0.858	0.81
NCI-H1993	0.437	0.614	0.475	–	0.781	0.832	0.836	0.78	0.557	0.788	0.64	0.728	0.801	0.663	0.923	0.786

Cell Line	relative viability ([1]; first compound 0.2 µM)	relative viability ([1]; first compound 0.6325 µM)	relative viability ([1]; first compound 2 µM)	relative viability ([2]; first compound 0.2 µM)	relative viability ([2]; first compound 0.6325 µM)	relative viability ([2]; first compound 2 µM)	relative viability ([3]; first compound 0.02 µM)	relative viability ([3]; first compound 0.06325 µM)	relative viability ([3]; first compound 0.2 µM)	relative viability ([3]; first compound 0.6325 µM)	relative viability ([3]; first compound 2 µM)	relative viability ([4]; first compound 0.02 µM)	relative viability ([4]; first compound 0.06325 µM)	relative viability ([4]; first compound 0.2 µM)	relative viability ([4]; first compound 0.6325 µM)	relative viability ([4]; first compound 2 µM)
NCI-H2023	0.291	0.358	0.116	0.244	0.137	0.109	0.852	0.824	0.0955	0.591	0.431	0.814	0.694	0.763	0.943	0.854
201T	0.358	0.333	0.312	0.699	0.676	0.652	1.08	0.996	1.06	1.15	1	0.968	1.03	1.03	0.994	1.05
LK-2	0.614	0.756	0.296	0.649	0.472	0.343	1.19	1.16	0.88	1.22	1.08	0.999	0.964	0.716	1.05	0.636
SW 1573	0.414	0.294	0.169	0.571	0.471	0.39	0.965	0.946	0.81	0.91	0.951	1.07	1.21	0.599	1.2	1.17
NCI-H647	0.352	0.337	0.223	0.429	0.381	0.473	1.17	1.2	0.259	1.35	1.21	1.02	1.09	1.09	1.08	0.999
HCC-78	0.487	0.388	0.479	0.207	0.138	0.172	0.546	0.606	0.524	0.57	0.432	1.03	0.739	0.915	0.913	0.738
NCI-H727	0.638	0.623	0.516	0.373	0.388	0.261	0.973	0.831	0.539	1.18	0.674	0.847	0.661	0.786	0.91	0.625
BEN	0.486	0.479	0.495	0.467	0.472	0.527	0.601	0.517	0.499	0.61	0.62	0.75	0.686	0.677	0.742	0.812
NCI-H650	0.313	0.319	0.318	0.789	0.69	0.497	1.04	1.03	–	1.02	0.98	1.06	1.04	0.636	0.896	0.308
NCI-H1793	0.297	0.302	0.239	0.426	0.326	0.519	0.605	0.606	0.406	0.648	0.41	0.682	0.794	0.504	0.816	0.723
NCI-H1915	0.558	0.525	0.491	0.98	0.932	0.874	1.08	1.11	1.11	1.08	1.06	0.905	0.972	1.05	0.93	0.928
HCC-366	0.352	0.4	0.166	0.0975	0.105	0.113	1.02	0.941	0.501	0.893	0.907	0.931	0.978	1.18	1.18	1.09
SK-LU-1	0.352	0.388	0.333	0.501	0.524	0.444	0.819	0.564	0.197	0.798	0.805	0.859	0.676	0.992	0.832	0.816
ABC-1	0.635	0.759	0.363	0.546	0.493	0.298	0.971	1.03	0.28	1	0.854	1.48	1.29	1.12	1.37	0.961
NCI-H1666	0.642	0.713	0.617	0.31	0.348	0.274	0.908	0.947	0.439	0.93	0.786	0.59	0.658	0.444	0.739	0.629
COR-L23	0.307	0.209	0.152	0.51	0.442	0.173	0.968	1.01	0.942	0.923	0.995	1.08	0.906	1.03	0.96	1.01
NCI-H460	0.183	0.168	0.098	0.333	0.362	0.295	0.934	0.992	0.952	0.953	0.997	0.878	0.962	0.969	0.951	0.874
